In BindingDB's records for patent US20240132503 (Ocumension Therapeutics (Suzhou) Co., 2024):

Molecular target: Tyrosine-protein kinase SYK (Homo sapiens, UniProt P43405)
Test: In Vitro Evaluation of Inhibitory Activity Against Syk Protein Kinase
Protocol: Test Procedure and Method:(a) Compound dilution and microplate injection1) Compound powder was weighed and dissolved in a specific amount of DMSO at an initial concentration of 10 mM.2) The compound was diluted to have a concentration of 0.74 mM, POD18 was used for microplate injection by 135 nL per well, an initial concentration of the compound was 10 μM, and 11 concentrations and 3-fold descending serial dilution were carried out.(b) Reaction stage of enzyme and substrate1) Preparation of test buffer dilution: 5×HTRF buffer in the kit was diluted to 1×HTRF buffer, and a specified amount of DTT and MgCl2 solution were added for later use.2) A Syk enzyme reaction solution was prepared with 1×HTRF buffer, so that a final reaction concentration of Syk kinase was 0.0156 ng/μL.3) A TK-Substrate-biotin/ATP mixture was prepared, so that a final substrate concentration was controlled to be 0.2 μM. An ATP concentration was controlled to be 2 μM.4) A mutidorp injector was used to add the sample, 5 μL of Syk enzyme solution and TK-Substrate-biotin/ATP mixture were added to each well, and incubated at 23° C. for 1 hour.

IC50: 25 nM
Structure (SMILES): c1cc(N2CCOCC2)ccc1NC1=Nc2ccc(-c3cn[nH]c3)cc2N2CCN=C12 [US20240132503, Compound Crystal form A Compound Formula 1]
